Test results reported in US20230172203A1, “PLANT METABOLISM PROMOTING COMPOSITIONS AND METHODS OF USE” (Panoptic Ag Solutions LLC, priority 2021, published 2023).

Assays:
[1] = test system: CalWonder variety pepper plant seedlings; experiment: 2021 Greenhouse Bell Pepper Trial; assay type: in vivo
From the text: (§1) The base formulation used in greenhouse trials was an aqueous solution of L-theanine (20% by weight). The base formulation was further diluted with water as detailed for each trial. CalWonder variety pepper plant seedlings (n=4/treatment) were planted in commercial potting soil and then were transplanted to 3-gallon pots. L-theanine treatment was applied at the equivalent of 1 pint in 100 gallons of water (125 ppm) and sprayed till runoff. Two treatment applications were made to the plants approximately 14 days apart.

[2] = test system: Seedless watermelon plant seedlings; experiment: 2021 Watermelon Trial; assay type: in vivo
From the text: as §1, with “Seedless watermelon” for “CalWonder variety pepper”

[3] = foliar spray 125 ppm till runoff, two applications ~14 days apart
[4] = vs untreated check, 125 ppm foliar, two applications

CCNC(=O)CC[C@H](N)C(=O)O [L-theanine]
Basal Diameter [1, 3]: 5.55 a mm
Fruit (count) [1, 3]: 5.5 a count
Plant Height [1, 3]: 26 a in
improvement in basal diameter [1, 4]: 1.82 mm
improvement in basal diameter, percent [1, 4]: 48.8%
improvement in fruit count [1, 4]: 3.0
improvement in fruit count, percent [1, 4]: 120%
Fruit/Vine (count) [2, 3]: 9.50 a count
Vine Length [2, 3]: 51.0 a cm
increase in average fruit per vine [2, 4]: 4.75
increase in average fruit per vine, percent [2, 4]: 100.0%
increase in vine development [2, 4]: 14.5 cm
increase in vine development, percent [2, 4]: 39.7%
